Laboratory results: US10543216B2, “Modus of administration of iron, and new formulations adapted for the said goal” (BIOFER S.P.A., priority 2013, dated 2020)

Test system: Pig esophageal epithelium
Experiment: in vitro permeation in the Franz cell (model of sublingual absorption)
Details: Franz cell, pig esophageal epithelium, 37° C.
Experimental: Sublingual absorption of Fe++ compounds was evaluated by means of in vitro permeation experiments using the Franz cell exemplified in FIG. 1. Pig esophageal epithelium was used as membrane. This experimental model is recognized as valid and reliable in the assessment of sublingual absorption of drugs [I. Diaz Del Consuelo, G. P. Pizzolato, F. Falsom, R. H. Guy, and Y. Jacques.: Evaluation of pig esophageal mucosa as a permeability barrier model for buccosal tissue. J. Pharm. […] Arch. […] Membrane preparation occurred by following the method described here. The esophagi were taken from the animals within one hour after sacrifice. The mucosa was separated from the muscle tissue with a lancet. To separate the epithelium, the mucosa was immersed in distilled water at 60° C. for 2 minutes and then the epithelium was removed from the underlying tissue with the aid of a spatula. The tissues thus prepared were stored at −20° C. until the time of use, when they were thawed to room temperature before being mounted on the vertical diffusion cells of the Franz type, a schematic view of which is shown in FIG. 1. The esophageal epithelium was placed on a regenerated cellulose filter (pore diameter 0.45 μm) with the luminal side facing up, and mounted between the donor and receptor compartments of the Franz cells. […] The exposed surface was 0.6 cm^2. The receptor compartment was filled with approximately 4 ml of physiological solution (0.9% NaCl w/v) and kept under constant magnetic agitation for the entire duration of the experiment. The entire system was thermostat-controlled at 37° C. Sampling of the receptor compartment was performed by drawing 200 μl of receptor solution, which were replaced immediately with an equal volume of fresh physiological solution. The samples were taken at preset time intervals, specifically at 0, 1, 2, 3, 4, 5 and 6 hours.
4 g of powder were suspended in 10 ml of physiological solution and left under agitation for 15 minutes, then the solution was filtered with regenerated cellulose filters (pore diameter 0.45 μm).
6 g of powder were suspended in 10 ml of physiological solution. The suspension was left under magnetic agitation for 25 minutes and then filtered with regenerated cellulose filters (pore diameter 0.45 μm).
7 g of powder were suspended in 6 ml of physiological solution. The suspension was left under magnetic agitation for 1 hour; at the end it was filtered with regenerated cellulose filters (pore diameter 0.45 μm).
An excess of ascorbic acid (2 g) was added to the solution. The suspension was left under magnetic agitation for 30 minutes and after filtration through regenerated cellulose filters (pore diameter 0.45 μm) was used as it was.
4 g of powder were suspended in 10 ml of physiological solution. The suspension was left under magnetic agitation for 15 hours, at the end of which it was filtered with regenerated cellulose filters (pore diameter 0.45 μm).
An excess of powder was suspended in 10 ml of physiological solution. The suspension was left under magnetic agitation for 15 hours, at the end of which it was filtered with regenerated cellulose filters (pore diameter 0.45 μm).

In the case of ferric citrate, the “permeation / absorption through the epithelium (in words)” value is reported as “appreciable only at very low pH values”.
